Legend:
[1] = system: Tyr mice; assay: CatWalk gait analysis; type: in vivo, mouse
Method: Animals—Animals were housed under a 12-hour light/dark cycle, with food and water ad-libitum. Mouse pups were subcutaneously administrated with NAP [having an amino acid sequence NAPVSIPQ (SEQ ID NO: 2), 25 μg NAP/1 ml saline] as described (8, 12). At 21 days of age mice were administered daily intranasal NAP in vehicle solution (“DD”—7.5 mg/ml of NaCl, 1.7 mg/ml of citric acid, 3 mg/ml of disodium phosphate dihydrate, and 0.2 mg/ml of 50% benzalkonium chloride solution) (0.5 μg NAP/5p1 DD) (8, 9, 12, and U.S. Pat. No. 10,912,819 to Gozes). These mice continued to behavioral analysis as described hereinbelow. The noninvasive intranasal route was chosen as these experiments required daily handling and administration. Age (weeks) of mice during behavioral experiments (mean±SEM) was as follows: Catwalk—9.23±0.15, grooming—10±0.15, social approach—10.5±0.12, odor-discrimination—12.12±0.13, hanging-wire—13±0.14, hotplate—13.18±0.13. Group size was determined following previous experiments (12). Pups were randomly allocated to either the NAP or DD group according to sex and genotype. All procedures involving animals were conducted under the supervision and approval of the institutional animal care and use committee of Tel Aviv University and the Israeli Ministry of Health.
Catwalk—Was performed as previously described (12).
Briefly, for ear twitch reflex, a cotton tip was gently brushed against the tip of the ear three times, between postnatal days 7-15 or until the pup responded correctly for two consecutive days. For air righting reflex, the pup was held up-side down and released ˜10.5 cm above the cage, containing 5 cm of shavings. The test was performed between postnatal days 8-21 or until the pup landed on the shavings with all four paws, for two consecutive days. For surface righting reflex, pups were placed on their backs on a level surface, the test was performed between postnatal days 1-13 until the pups was able to right itself with all four paws on the surface in under a second for two consecutive days. For eye opening, mice were observed daily until both eyes were open (eyelids separated completely). For auditory startle, the pup was placed on a level surface and the experimenter clapped loudly twice until a visible startle response was evident for 2 consecutive days. The test was performed between days 7-18. For cliff aversion, pups were placed on the edge of a small box (approx. 4 cm in height) with both paws protruding over the edge of the box. Pups were allowed 30 sec to avoid the cliff and move themselves backwards. Test was performed between day 1-14 until the pup avoided the cliff in under 30 sec for two consecutive days^9. For the rooting reflex, a cotton tip was gently brushed against the sides of the pup's mouth until the pup moved its head to the direction of the stroke. Both sides were tested twice. […] All tests were conducted between 10 AM-4 PM. For the first 5 postnatal days, each pup was put under a single 60-watt bulb during testing to assure the pups' warmth. • Novel object recognition: Briefly, the open field test was used for the first day of habituation since both tests are conducted in the same arena. The following day animals underwent another habituation to the arena (5 mins). As described, the test included two consecutive days of habituation and the experimental days which consisted of the three phases. […]

[2] = system: Tyr mice; assay: Fecal microbiome real-time PCR; type: in vivo, mouse; conditions: WT mice
Method: Microbiome—Fecal samples were collected from 12.2±0.19-week-old mice. Samples were prepared and analyzed as previously described (57). Microbiome data was analyzed after applying the logarithmic transformation.

[3] = system: Tau-MT interaction in differentiated N1E-115 cells; assay: Fluorescence recovery after photobleaching (FRAP) of mCherry-Tau; type: cell-based, mouse; conditions: for Tau-MT interaction (immobile mCherry-Tau fraction): 4 hrs
Method: Cell culture—Mouse neuroblastoma NIE-115 cells were maintained in Dulbecco's modified Eagle's medium, 10% fetal bovine serum, 2 mM glutamine and 100 U ml-1 penicillin, 100 mg ml-1 streptomycin (Biological Industries, Beit Haemek, Israel). The cells were incubated in 9 5% air/5% CO2 in a humidified incubator at 37° C.
Cell differentiation and co-transfection of overexpression plasmids—Cultured NIE-115 cells were plated on 35 mm dishes (81156, 60 p-Dish, Ibidi, Martinsried, Germany) at a concentration of 1.25×10^4 cells per dish and then were differentiated with reduced fetal bovine serum (2%) and DMSO (1.25%) containing medium for 5 days before transfection. 48 hrs before experiments N1E-115 cells were co-transfected with 1 μg EB3-RFP or mCherry-Tau (3R) plasmid with or without 2 μg of plasmids, coding to GFP conjugated to full-length human ADNP, or ADNP carried mutations. 1:3 ratios between total amount of transfected DNA and transfection reagent were used according to manufacture guidance (Lipofectamine2000, Thermo Fisher Scientific, Waltham, MA, USA) in all subsequent experiments.
Fluorescence recovery after photobleaching (FRAP)—Differentiated NIE-115 cells were transfected with mCherry-Tau with or without GFP-conjugated to full-length ADNP or mutated ADNP, and imaged 48 hrs after transfection. An ROI for photobleaching was drowned in the proximal cell branches. mCherry-Tau was bleached with a […], and fluorescence recovery was collected within wavelengths of 610-650 nm. 80 images were taken every 0.74 sec immediately after bleaching. After FRAP imaging all samples were also treated with NAP in final concentrations of 10^−12M, and after 4 hrs time-lapse imaging was done again under the same conditions. FRAP imaging for assessment difference between NAP and SKIP (SEQ ID NO: 21) activity was performed after an hour of ZnCl2 treatment (400 μM final concentration; Sigma, Rehovot, Israel) with or without NAP/SKIP (10^−12M final concentration). Fluorescence signals were quantified with Fiji, obtained data were normalized with easyFRAP [82, 83] and FRAP recovery curves were fitted by a one-phase exponential association function by GraphPad Prism6 (GraphPad Software, Inc., La Jolla, CA, USA) while samples with R^2<0.9 were excluded.
Next, the effect of full-length/truncated ADNP forms with or without NAP treatment on Tau-MT interaction was examined by fluorescence recovery after photobleaching (FRAP) (FIGS. 8A-C). FRAP was performed with mCherry-tagged Tau protein (FIG. 8A). […] Therefore, the immobile mCherry-Tau fraction reflects the rate of Tau association with MTs.

CC[C@H](C)[C@H](NC(=O)[C@H](CO)NC(=O)[C@@H](NC(=O)[C@@H]1CCCN1C(=O)[C@H](C)NC(=O)[C@@H](N)CC(N)=O)C(C)C)C(=O)N1CCC[C@H]1C(=O)N[C@@H](CCC(N)=O)C(=O)O [NAP, NAPVSIPQ]
gait ([1]; WT mice, data not shown): No major NAP effect was observed in WT mice
gait: intensity parameters ([1]; female Tyr mice): significant NAP correction
gait: swing speed and swing duration ([1]; female Tyr mice): ameliorated by NAP
gait: front base of support ([1]; male Tyr mice): NAP correcting this phenotype in males
gait: print length and area ([1]; male Tyr mice, daily intranasal NAP): significant NAP recovery
bacterial loads (EubV3, BIF, Lacto, Entero) [2]: no effect on WT mice
Tau-MT interaction (immobile mCherry-Tau fraction) ([3]; cells expressing ADNP p.Glu830synfs*83, NAP 10^−12M): significantly increased Tau-MT interaction
Tau-MT interaction (immobile mCherry-Tau fraction) ([3]; cells expressing ADNP p.Ser404*, NAP 10^−12M): significantly increased Tau-MT interaction
Tau immobile fraction (Tau-MT interaction) in the presence of zinc ([3]; zinc 400 μM, 1 h, peptide 10^−12M): excessive impact of NAP on Tau-MT interaction

Reference: patent US20250032581A1, “COMPOSITIONS AND ARTICLES COMPRISING AN ADNF POLYPEPTIDE” (RAMOT AT TEL-AVIV UNIVERSITY LTD., priority 2021, published 2025)
